The conditions of test [1]: LS patients, long-term exposure; cited from earlier work.
In test [2] the test system is PBMCs from LS Rhesus macaques. Kind of test: IFNγ ELISpot assay with PBMCs from LS Rhesus macaques. The test is classed as cell-based. To be noted: stimulated 48 h (FIG. 22B). The protocol:
FIG. 22A-B. Validation of the predicted neoAg in LS Rhesus macaques. A) Immunogenicity of neoAg peptide pools and deconvoluted neoAg with ELISpot assay. PBMCs from LS Rhesus macaques (n=4) were stimulated with […] and 12 individual peptides from the pools, concavalin A (+ve control), and DMSO (−ve control) for 48 h. B) ELISpot images. […] Spot forming Units for IFNγ secretion were analyzed and quantitated by ELISpot plate reader.
Since the ultimate goal is to develop a universal LS-cancer vaccine. the inventors then tested the immunogenicity of the ELISpot-reactive peptides in PBMCs from LS Rhesus macaques who carry a pathogenic mutation in the MLH1 gene with pathology similar to human LS. These animals. housed at MD Anderson Cancer Center, spontaneously develop CRC and serve as an ideal preclinical LS model for immune-interception strategies with neoAg vaccines. PBMCs from four different LS Rhesus were stimulated with four peptide pools and 12 individual peptides for ELISpot assays as indicated in FIG. 22A.

Another test has as its system healthy donor PBMCs. Briefly: IFNγ ELISpot assay with peptide-stimulated healthy donor PBMCs. The class given is cell-based, human. The protocol:
FIG. 10A-D. In vitro validation of predicted neoAgs immunogenicity using ELISpot IFNy assay. A) Schematic of peptide pool, stimulation, and cell culture workflow for ELISpot assays. PBMCs were exposed with the individual peptides from the immunogenic pools in the presence of IL-7 for 3 d, followed by expansion of neoAg-specific T cells in the presence of IL-2. On day 13, expanded cells (10^5 cells per well) were plated onto 96-well ELISpot plate coated with an IFNγ antibody and re-stimulated with the respective peptide for 24 h. IFNy secreting cells were analyzed as spot-forming units (SFUs), and the inventors chose ≥15 SFU produced by peptide stimulated cells over DMSO control cells as an indicator of the peptide immunogenicity. B) Quantification of IFNγ-secreting cells (SFU) obtained from ELISpot assay of 12 neoAg-stimulated PBMCs. ConcA and DMSO served as positive and negative controls. […] C) Selection of 110 predicted MHC-I neoAgs from 3 different categories and percentage of immunogenicity in vitro validation. […] “Most Immunogenic” refers to neoAgs selected from the top 100 prediction list of Most Immunogenic MHC-I neoAgs. “Most recurrent” refers to neoAgs selected from the top 100 prediction list of Most Recurrent MHC-I neoAgs. “Others” refers neoAgs that were predicted to have low immunogenicity and no recurrency. A total of 44 MHC-II neoAgs from 2 different categories were tested. […] “Most Immunogenic” refers to neoAgs selected from the top 100 prediction list of Most Immunogenic MHC-II neoAgs. “Most recurrent” refers to neoAgs selected from the top 100 prediction list of Most Recurrent MHC-II neoAgs. D) pMHC-pentamer staining. Expanded Pan-T cells from the healthy human donor were isolated and stained with WDTC1 neoAg peptide/A*02:01 Pentameric complexes and PerCP-conjugated CD8 antibody followed by flow cytometry analysis. Pan T-cells from healthy human donor PBMC (HLA-A*02:01) were isolated using negative magnetic selection. Isolated Pan T cells were stimulated and expanded with Opto-antigen presenting beads conjugated with WDTC1 neoAg-peptide. Viable Pan-T cells were gated based on FSC and SSC scatter and SYTOX Blue dead cells staining after doublet-exclusion. Flow cytometric plots representing CD8 positive (x-axis) and PE-biotin-pMHC-pentamer positive (y-axis) cells; unstained, unstimulated, and WDTC1 Opto-antigen presenting beads stimulated cells (left to right). The percentage of live CD8+ cells and CD8/WDTC1 neoAg-loaded MHC pentamer positive cells are shown.
FIG. 19A-B. In vitro validation of the pooled predicted neoAgs immunogenicity using ELISpot IFNγ assay. A) Schematic of peptide pool, stimulation, and cell culture workflow for ELISpot assays. All 154 peptides were grouped into 15 peptide pools to stimulate PBMCs from 3 healthy human donors as shown in the illustrations. IFNy secreting cells were analyzed as spot-forming units (SFUs), indicative of immunogenicity. B) Quantification of IFNγ-secreting cells (SFU) obtained from ELISpot assay. Pools 2, 3, 5, 6, 9, and 12 produced at least 15 or higher SFU/10^5 cells from two different PBMCs. […] ConcA and DMSO served as positive and negative controls.
Healthy donor PBMCs were stimulated with 15 peptide pools (Supplementary Table 13) to expand the neoAg-specific CD8^+ T-cells followed by quantitative ELISpot assays (FIG. 19A) to measure immunogenicity. […] To ascertain the immunogenicity of individual peptides within each immunogenic pool. a deconvolution protocol (see Methods) was implemented (FIG. 10A). […] Three percent of MHC-I neoAgs not predicted to be highly immunogenic or recurrent (Others). 5% of the top 100 most immunogenic MHC-II predicted neoags, and 6% of the top 100 most recurrent MHC-II predicted neoags elicited an immunogenic response as assessed by ELISpot assays. Additionally. 18% of all of these elispot-reactive neoags were also predicted from the validation set (FIG. 9C). […]

Setting [3] is: IFNγ ELISpot, peptides marked Tested.
The mark [4] stands for this setting: IFNγ ELISpot, peptide-stimulated healthy donor PBMCs.
Setting [5] is: IFNγ ELISpot, peptide-stimulated healthy donor PBMCs, peptides grouped in 15 pools.
[6] abbreviates: IFNγ ELISpot, only peptides marked Tested.
[7] abbreviates: IFNγ secretion in healthy donor PBMCs vs unexposed control cells.

As to `COc1ccc2cc([C@H](C)C(=O)O)ccc2c1` [naproxen], the “resident immune cells within the mucosal tissue of the colon” value in test [1] is listed as “increase of resident immune cells within the mucosal tissue of the colon”. With “CELSR2: deconvoluted neoAg peptide from CELSR2, tested in LS Rhesus PBMCs (RLDKGNFAGA)”, the “immunogenicity of deconvoluted peptides in stimulated rhesus PBMC (ELISpot)” value in test [2] was “except PLOD1 and CELSR2 were determined immunogenic”.

Turning to SQKNITPAI [compound 122], the Elispot reactive result in the test on healthy donor PBMCs (setting [3]) was “No”. On to SQNWGSLPL [compound 164], for which the “ELISPOT result (positive Yes/No) for peptides marked Tested” value (from here on “ELISPOT result (positive Yes/No)”) in the test on healthy donor PBMCs (setting [4]) was “No”. For SQVWTAATLR [compound 115], in the test on healthy donor PBMCs (setting [3]), the Elispot reactive entry is “No”. Still for that read-out and setting: the entry for SWMGGLHSFY [compound 121] is “No”. Turning to TAPVASASPKL [compound 17], the Elispot reactive result in the test with healthy donor PBMCs (IFNγ ELISpot, peptide tested) is listed as “No”.

For the compound TPMHSLLIS [compound 212], in the test with healthy donor PBMCs (IFNγ ELISpot, peptide tested), the Elispot reactive result is reported as “No”. Same read-out and setting: the entry for TPMHSLLISPM [compound 211] is “No”. TPQDSRQVL [compound 117]: in the test on healthy donor PBMCs (setting [3]), the Elispot reactive result is “No”. Consider TPRKLVGRAV [compound 162], for which, in the test on healthy donor PBMCs (setting [4]), the “ELISPOT result (positive Yes/No)” value is recorded as “No”. With TQLARFFPI, the Elispot reactive entry in the test with healthy donor PBMCs (setting [5]) is reported as “yes”. As for TQLARFFPI [compound 24], in the test on healthy donor PBMCs, the “experimental validation of the neoAg, Yes/NA” value is on record as “Yes”. Further, the Elispot reactive result in the test on healthy donor PBMCs (setting [6]), in the test on healthy donor PBMCs (setting [3]) and with healthy donor PBMCs (setting [7]) was “Yes” throughout. Turning to TSSPRTMSW [compound 120], in the test on healthy donor PBMCs (setting [3]), the Elispot reactive result is recorded as “No”. As to VGMRETTGL [compound 119], in the test with healthy donor PBMCs (setting [3]), the Elispot reactive result is “No”.

On to VLEDTLLKI, for which the Elispot reactive result with healthy donor PBMCs (setting [5]) is listed as “yes”. In the case of VLEDTLLKI [compound 158], the “ELISPOT result (positive Yes/No)” value in the test with healthy donor PBMCs (setting [4]) is on record as “Yes”. In addition, the Elispot reactive result with healthy donor PBMCs (setting [7]) is reported as “Yes”.

For the compound VMANVLTLNL, the Elispot reactive result with healthy donor PBMCs (setting [5]) was “yes”. As for VMANVLTLNL [compound 157], in the test with healthy donor PBMCs (setting [4]), the “ELISPOT result (positive Yes/No)” value is “Yes”. Also, in the test with healthy donor PBMCs (setting [7]), the Elispot reactive result is “Yes”. With VPACSHVPM [compound 202], the Elispot reactive entry in the test on healthy donor PBMCs (IFNγ ELISpot, peptide tested) is recorded as “No”.

With VPTWSARLL [compound 203], the Elispot reactive result in the test on healthy donor PBMCs (IFNγ ELISpot, peptide tested) is “No”. Turning to VSNIAQAPLY [compound 172], the “ELISPOT result (positive Yes/No)” value in the test with healthy donor PBMCs (setting [4]) was “No”. With VVHKKRGLF [compound 127], the Elispot reactive entry in the test on healthy donor PBMCs (setting [3]) was “No”.

As for WLPKMPPFV, the Elispot reactive result with healthy donor PBMCs (setting [5]) is listed as “yes”. With WLPKMPPFV [compound 163], the “ELISPOT result (positive Yes/No)” value in the test on healthy donor PBMCs (setting [4]) was “Yes”. Moreover, the Elispot reactive result with healthy donor PBMCs (setting [7]) is reported as “Yes”. As for WSWCGTSQTY [compound 136], the “ELISPOT result (positive Yes/No)” value with healthy donor PBMCs (setting [4]) is “Yes”. Moreover, the Elispot reactive entry in the test with healthy donor PBMCs (setting [7]) is recorded as “Yes”. Consider YLFAKAYLV [compound 201], for which the Elispot reactive result in the test with healthy donor PBMCs (IFNγ ELISpot, peptide tested) was “No”.

In the case of YLGTPTWNC, the Elispot reactive result in the test with healthy donor PBMCs (setting [5]) is given as “yes”. YLGTPTWNC [compound 151]: the “ELISPOT result (positive Yes/No)” value with healthy donor PBMCs (setting [4]) was “Yes”. Further, the Elispot reactive result in the test with healthy donor PBMCs (setting [7]) is “Yes”. Regarding YMMDDLELI [compound 1], in the test on healthy donor PBMCs (setting [6]), the Elispot reactive entry is “No”. As for YVAIRPLPY [compound 173], the “ELISPOT result (positive Yes/No)” value in the test on healthy donor PBMCs (setting [4]) is “No”.
